# Read-outs that look alike come from different tables or passages of the source.
# Key:
# PR [1] = biological target: T1, PR (Homo sapiens, UniProt P06401); format: cell-based; set-up: expressed in transfected cells; host or cells: CV-1 cells
# T1 sequence (P06401 1-933): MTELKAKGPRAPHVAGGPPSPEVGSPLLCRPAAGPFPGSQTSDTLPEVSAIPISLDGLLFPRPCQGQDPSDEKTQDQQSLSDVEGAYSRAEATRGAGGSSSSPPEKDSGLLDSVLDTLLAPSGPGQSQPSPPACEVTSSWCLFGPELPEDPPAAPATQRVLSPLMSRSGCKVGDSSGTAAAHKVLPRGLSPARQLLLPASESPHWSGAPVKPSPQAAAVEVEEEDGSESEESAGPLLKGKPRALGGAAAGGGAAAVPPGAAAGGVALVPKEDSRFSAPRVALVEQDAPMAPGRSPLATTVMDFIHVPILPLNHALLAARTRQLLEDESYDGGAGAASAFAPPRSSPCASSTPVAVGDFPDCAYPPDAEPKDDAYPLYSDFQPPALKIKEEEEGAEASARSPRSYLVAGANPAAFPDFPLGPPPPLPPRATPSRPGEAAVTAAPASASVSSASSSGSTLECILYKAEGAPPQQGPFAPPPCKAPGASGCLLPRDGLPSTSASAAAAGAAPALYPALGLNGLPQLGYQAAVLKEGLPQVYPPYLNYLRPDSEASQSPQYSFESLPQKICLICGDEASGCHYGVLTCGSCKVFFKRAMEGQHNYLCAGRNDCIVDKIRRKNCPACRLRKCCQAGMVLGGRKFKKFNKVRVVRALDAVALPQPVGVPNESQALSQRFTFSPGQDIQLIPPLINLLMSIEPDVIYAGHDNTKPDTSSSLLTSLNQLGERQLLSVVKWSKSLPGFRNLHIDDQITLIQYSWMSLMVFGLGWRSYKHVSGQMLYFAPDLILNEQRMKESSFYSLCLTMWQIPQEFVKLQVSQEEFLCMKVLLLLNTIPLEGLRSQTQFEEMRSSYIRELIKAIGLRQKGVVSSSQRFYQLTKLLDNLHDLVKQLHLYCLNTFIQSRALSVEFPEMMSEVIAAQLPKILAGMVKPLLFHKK
# Description: Cell culture and transfection: Monolayer cultures of COS-7 cells were grown at 37° C. with 5% CO2 in Dulbecco's modified Eagle's medium (DMEM; GIBCO/BRL Life Technologies, Inc.) supplemented with 5% of fetal bovine serum, respectively. The 1470.2 mouse mammary adenocarcinoma cells (Pennie et al., Mol Cell Biol 15:2125-2134, 1995) were grown in DMEM with 4.5 g glucose/L (Quality Biologicals, Inc.) whereas T47D cells were grown in Dulbecco's modified Eagle's medium with high glucose (4.5 g/L, 2 mM glutamine, and 60 ng/ml insulin), both with 10% of fetal bovine serum. The 1470.2 cells were transiently transfected with the human PR-B construct, 1 μg of MMTVLuc, and 50 ng Renilla null luciferase, with the total transfected DNA brought up to 3 μg/60 mm dish with pBSK^+DNA, using the calcium phosphate method as previously described (Szapary et al., J Biol Chem 271:30576-30582, 1996). Following 24 h of steroid treatment, the cells were harvested in 1× Passive Lysis Buffer (0.5 ml/dish; Promega, Madison, Wis.). Twenty μl of the cell lysates were used to assay for luciferase activity using the Dual-Luciferase Assay System from Promega (Madison, Wis.) and the methods recommended by the supplier. […]
# PR [2] = biological target: T1, PR
# Source text: The absolute levels of luciferase activity (±S.D. of triplicate values) were plotted.
# human PR-B = biological target: T2, human PR-B (Homo sapiens, UniProt P06401); assay: PR-B transactivation of MMTVLuc reporter in transiently transfected 1470.2 cells; format: cell-based; conditions: for EC50: read-out: EC50 from dose-response curves
# T2 construct: expressed in transfected cells; host or cells: 1470.2 mouse mammary adenocarcinoma cells
# T2 sequence (P06401 1-933): T1 sequence (P06401 1-933)
# Source text: All data were normalized for Renilla expression. […] The error bars represent the SD of triplicate plates.
# All data were normalized for protein levels in the cell lysates. […] The error bars represent the SD of triplicate plates.
# All data were normalized for Renilla expression.
# [3] = 1470.2 cells, transfected human PR-B, MMTVLuc reporter
SMILES,agonist activity in CV-1 cells (PR [1]; CV-1 cells),"antiprogestin activity: inhibition of the action of 300 pM R5020 (PR [2]; 1 μM and 10 μM Dex-Mes, 1 μM Dex-Ox, FIG. 7)","partial progestin activity with added PR (human PR-B; 1470.2 cells, 3 or 30 ng PR-B plasmid, 1 μM steroid, FIG. 5B)",EC50 (human PR-B; [3]) [nM],agonist activity in CV-1 cells (PR [1]),antiprogestin activity: inhibition of the action of 300 pM R5020 (PR [2]),partial progestin activity with added PR (human PR-B),EC50 (human PR-B) [nM]
"C[C@@H]1C[C@H]2[C@@H]3CCC4=CC(=O)C=C[C@]4(C)[C@@]3(F)[C@@H](O)C[C@]2(C)[C@@]1(O)C(=O)COS(C)(=O)=O [Dex-Mes, dexamethasone 21-mesylate]",much more agonist activity than either RIT 3021-020 or RU 486,reduced the activity of 300 pM R5020 to that of the competing steroid alone,significant amounts of partial progestin activity,~350,,,,
"C[C@@H]1C[C@H]2[C@@H]3CCC4=CC(=O)C=C[C@]4(C)[C@@]3(F)[C@@H](O)C[C@]2(C)[C@]12OCC2=O [Dex-Ox, dexamethasone oxetanone]",,,,,much more agonist activity than either RIT 3021-020 or RU 486,reduced the activity of 300 pM R5020 to that of the competing steroid alone,significant amounts of partial progestin activity,~30
"CCC(=O)[C@@]1(C)CC[C@H]2[C@@H]3CCC4=CC(=O)CCC4=C3CC[C@@]21C [R5020, promegestone, reference compound]",,,,0.4,,,,

# — patent US20030207854A1, “Antiprogestins with partial agonist activity” (priority 2002, published 2003)
